How the values were obtained:
[1] = target: T1, FKBP51 (Homo sapiens, UniProt Q13451); assay: Degradation of FKBP51 in HeLa cells (Western blot); format: cell-based; parameters: Upper blot: Endogeneous FKBP51; endogenous in cells; host or cells: HeLa; conditions: 24 h incubation, endogeneous FKBP51, Western Blot, GAPDH control
T1 sequence (Q13451 1-457): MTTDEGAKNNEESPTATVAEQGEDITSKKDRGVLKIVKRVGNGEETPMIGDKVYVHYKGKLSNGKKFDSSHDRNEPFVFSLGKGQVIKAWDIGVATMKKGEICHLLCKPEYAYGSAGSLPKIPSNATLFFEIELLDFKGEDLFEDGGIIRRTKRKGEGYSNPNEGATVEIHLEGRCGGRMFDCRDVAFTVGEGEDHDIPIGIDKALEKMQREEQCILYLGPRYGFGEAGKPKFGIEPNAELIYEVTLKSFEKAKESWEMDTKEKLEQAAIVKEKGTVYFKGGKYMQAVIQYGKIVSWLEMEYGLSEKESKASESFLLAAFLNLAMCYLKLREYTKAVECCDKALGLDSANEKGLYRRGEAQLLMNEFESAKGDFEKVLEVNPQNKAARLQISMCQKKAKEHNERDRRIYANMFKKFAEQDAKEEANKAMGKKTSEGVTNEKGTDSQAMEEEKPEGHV
Protocol: (§1) HeLa cells were incubated with the PROTAC MTQ202. 35,000 cells per well in a 24 well format. Figure 2 - Upper blot: Endogeneous FKBP51. Figure 2 - Lower blot: GAPDH. Cells were treated with the compound for 24 h before lysis. All samples have been exposed to a constant DMSO concentration. Lysate protein concentration was quantified via BCA assay and normalized with Lämmli buffer. Equal amounts of total protein were subjected to SDS-Page and Western Blot afterwards.

[2] = target: T1, FKBP51; assay: Degradation of FKBP51 in HEK293T cells (Western blot); format: cell-based; parameters: Upper blot: Endogeneous FKBP51; endogenous in cells; conditions: 48 h incubation, endogeneous FKBP51, Western Blot, GAPDH control
Protocol: as §1, with “HEK293T cells” for “HeLa cells”, “Figure 3-Upper” for “Figure 2 - Upper”, “Figure 3-Lower” for “Figure 2 - Lower”, “for 48” for “for 24”

[3] = target: T2, FKBP51FK1 (Homo sapiens, UniProt Q13451); assay: Binding affinities of exemplary compounds to FKBP51
T2 construct: FKBP51FK1
T2 sequence (Q13451 42-130 limits assumed): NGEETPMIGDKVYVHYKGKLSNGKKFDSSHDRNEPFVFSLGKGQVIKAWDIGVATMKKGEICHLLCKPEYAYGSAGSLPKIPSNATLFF
Protocol: Binding to FKBP51 is an important prerequisite in order to allow degradation of FKBP51. Thus, the binding affinities of the newly synthesized molecules (table 1) were tested.

Degradation of FKBP51 [1]: clearly visible, but not complete | Degradation of FKBP51 [2]: clearly visible, but not complete | Ki [3]: 24 ± 8 nM
Structure (SMILES): COc1ccc(CC[C@H](OC(=O)[C@H]2CCCCN2C(=O)[C@H](c2cc(OC)c(OC)c(OC)c2)C2CCCCC2)c2cccc(OCc3cn(CCOCCOCCOCCOCC(=O)N[C@H](C(=O)N4C[C@H](O)C[C@H]4C(=O)NCc4ccc(-c5scnc5C)cc4)C(C)(C)C)nn3)c2)cc1OC (stereo in doubt) [MTQ202, (S)-(R)-3-(3,4-Dimethoxyphenyl)-1-(3-((1-((S)-16-((2S,4R)-4-hydroxy-2-((4-(4-methylthiazol-5-yl)benzyl)carbamoyl)pyrrolidine-1-carbonyl)-17,17-dimethyl-14-oxo-3,6,9,12-tetraoxa-15-azaoctadecyl)-1H-1,2,3-triazol-4-yl)methoxy)phenyl)propyl 1-((S)-2-cyclohexyl-2-(3,4,5-trimethoxyphenyl)acetyl)piperidine-2-carboxylate]
